Earlier results as cited in patent US20090012101A1, “Mucarinic Agonists and Methods of Use Thereof” (UNIVERSITY OF TOLEDO, priority 2005, published 2009).

Tests used:
[1] = preclinical studies
M4 receptors = target: T1, M4 receptors (Homo sapiens, UniProt P08173)
T1 sequence (P08173 1-479): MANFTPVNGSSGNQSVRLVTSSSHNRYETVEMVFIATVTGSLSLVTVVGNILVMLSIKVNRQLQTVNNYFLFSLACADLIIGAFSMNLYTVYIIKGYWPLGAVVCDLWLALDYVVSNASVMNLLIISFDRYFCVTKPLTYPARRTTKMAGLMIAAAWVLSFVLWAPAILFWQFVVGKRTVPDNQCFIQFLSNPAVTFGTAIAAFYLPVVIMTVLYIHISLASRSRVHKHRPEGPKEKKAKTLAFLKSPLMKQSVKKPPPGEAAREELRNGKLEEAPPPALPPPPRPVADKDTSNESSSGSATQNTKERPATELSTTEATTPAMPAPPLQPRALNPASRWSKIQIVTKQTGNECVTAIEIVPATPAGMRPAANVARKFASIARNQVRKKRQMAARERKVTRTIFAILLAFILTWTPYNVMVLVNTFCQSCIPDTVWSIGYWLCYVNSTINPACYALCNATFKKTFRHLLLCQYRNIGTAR

M2 receptors = target: T2, M2 receptors (Homo sapiens, UniProt P08172)
T2 sequence (P08172 1-466): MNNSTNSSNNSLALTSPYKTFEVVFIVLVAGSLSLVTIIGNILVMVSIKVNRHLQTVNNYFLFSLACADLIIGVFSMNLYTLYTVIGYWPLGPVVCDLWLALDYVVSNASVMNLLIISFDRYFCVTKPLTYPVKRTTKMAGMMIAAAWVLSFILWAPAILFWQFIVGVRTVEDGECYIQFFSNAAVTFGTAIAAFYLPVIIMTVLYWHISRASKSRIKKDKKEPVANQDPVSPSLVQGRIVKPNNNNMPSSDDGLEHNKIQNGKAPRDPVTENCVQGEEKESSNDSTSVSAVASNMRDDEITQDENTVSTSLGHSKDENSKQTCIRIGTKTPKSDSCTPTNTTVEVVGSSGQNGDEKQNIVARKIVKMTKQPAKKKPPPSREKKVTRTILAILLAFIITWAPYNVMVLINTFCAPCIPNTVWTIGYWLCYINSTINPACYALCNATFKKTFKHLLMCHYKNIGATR

Compound | antipsychotic activity [1] | agonist activity at M4 receptors (M4 receptors) | agonist activity at M2 receptors (M2 receptors) | unwanted side effects associated with activation of M3 receptors | effect on psychiatric symptoms such as hallucinations (phase II clinical trials, Alzheimer's patients)
CCCCSc1nsnc1[C@H]1CN2CCC[C@H]1C2 [BuTAC, (5R,6R)-6-(3-butylthio-1,2,5-thiadiazol-4-yl)-1-azabicyclo[3.2.1]octane] | strong antipsychotic activity | partial agonist activity | partial agonist activity | – | –
CCCCCCOc1nsnc1C1=CCCN(C)C1 [xanomeline] | – | – | – | salivation, diarrhea and profuse sweating | significantly improved psychiatric symptoms
